Assays:
SARS-CoV Urbani strain = type: cell-based
SARS-CoV 3CLpro = SARS-CoV 3CLpro (Severe acute respiratory syndrome coronavirus, UniProt P0C6X7); type: biochemical

Row | SMILES | antiviral activity (in words) (SARS-CoV Urbani strain) | potency enhancement over 5 (enzyme IC50) (SARS-CoV 3CLpro) [fold]
1 | O=C(On1nnc2ccccc21)c1ccc2[nH]ccc2c1 [Inhibitor 3] | did not exhibit any antiviral activity | –
2 | O=C(Oc1cncc(Cl)c1)c1cccc2[nH]ccc12 [Inhibitor 10] | – | 10

Source: paper PMC2745596 (Bioorganic & Medicinal Chemistry Letters, 2008)
